Results taken from US20240043404A1 (AbbVie Inc., priority 2009, published 2024).
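Also: acute lymphoblastic leukemia line RS4,11, EC50 derived from percentage of viable cells after treatment relative to untreated controls, cell killing taken as a measure of Bcl-2 inhibition.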

What follows are molecules tested on RS4;11 cells (assay: RS4;11 cell viability assay (CellTiter Glo)). Conditions: Homo sapiens, RS4-11, 48 h, 50,000 cells per well, 10% human serum, 48 hours; read-out: RS4; 11 EC50 Values.
Assay type: cell-based, human
Experimental: The acute lymphoblastic leukemia (ALL) cell line RS4;11 was used as the primary human cell line to assess the cellular activity of Bcl-2 selective agents in vitro and their efficacy in vivo.
Cell cytotoxicity EC50 values were assessed using CellTiter Glo (Promega) according to the manufacturer's recommendations. The EC50 values were determined as a percentage of viable cells following treatment compared to the untreated control cells.
Molecule `CC1(C)CCC(CN2CCN(c3ccc(C(=O)NS(=O)(=O)c4cnc(OC[C@H]5CC[C@H](O)CC5)c(Cl)c4)c(Oc4cnc5[nH]ccc5c4)c3)CC2)=C(c2ccc(Cl)cc2)C1` [Example 298, N-({5-chloro-6-[(trans-4-hydroxycyclohexyl)methoxy]pyridin-3-yl}sulfonyl)-4-(4-{[2-(4-chlorophenyl)-4,4-dimethylcyclohex-1-en-1-yl]methyl}piperazin-1-yl)-2-(1H-pyrrolo[2,3-b]pyridin-5-yloxy)benzamide] has an EC50 of 70.3 nM. `CC1(C)CCC(CN2CCN(c3ccc(C(=O)NS(=O)(=O)c4ccc(OCC5(F)CCOCC5)c(C#N)c4)c(Oc4cnc5[nH]ccc5c4)c3)CC2)=C(c2ccc(Cl)cc2)C1` [Example 299, 4-(4-{[2-(4-chlorophenyl)-4,4-dimethylcyclohex-1-en-1-yl]methyl}piperazin-1-yl)-N-({3-cyano-4-[(4-fluorotetrahydro-2H-pyran-4-yl)methoxy]phenyl}sulfonyl)-2-(1H-pyrrolo[2,3-b]pyridin-5-yloxy)benzamide] showed an EC50 of 68 nM. For `CO[C@H]1CC[C@H](COc2ncc(S(=O)(=O)NC(=O)c3ccc(N4CCN(CC5=C(c6ccc(Cl)cc6)CC(C)(C)CC5)CC4)cc3Oc3cnc4[nH]ccc4c3)cc2C(F)(F)F)CC1` [Example 300, 4-(4-{[2-(4-chlorophenyl)-4,4-dimethylcyclohex-1-en-1-yl]methyl}piperazin-1-yl)-N-({6-[(trans-4-methoxycyclohexyl)methoxy]-5-(trifluoromethyl)pyridin-3-yl}sulfonyl)-2-(1H-pyrrolo[2,3-b]pyridin-5-yloxy)benzamide], the EC50 was 763 nM. In the case of `CO[C@H]1CC[C@@H](COc2ncc(S(=O)(=O)NC(=O)c3ccc(N4CCN(CC5=C(c6ccc(Cl)cc6)CC(C)(C)CC5)CC4)cc3Oc3cnc4[nH]ccc4c3)cc2C(F)(F)F)CC1` [Example 301, 4-(4-{[2-(4-chlorophenyl)-4,4-dimethylcyclohex-1-en-1-yl]methyl}piperazin-1-yl)-N-({6-[(cis-4-methoxycyclohexyl)methoxy]-5-(trifluoromethyl)pyridin-3-yl}sulfonyl)-2-(1H-pyrrolo[2,3-b]pyridin-5-yloxy)benzamide], the EC50 is reported as > 1000 nM. With `CC1(C)CCC(CC2CCN(c3ccc(C(=O)NS(=O)(=O)c4cnc(OCC5(O)CCC(F)(F)CC5)c(Cl)c4)c(Oc4cnc5[nH]ccc5c4)c3)CC2)=C(c2ccc(Cl)cc2)C1` [Example 302, N-({5-chloro-6-[(4,4-difluoro-1-hydroxycyclohexyl)methoxy]pyridin-3-yl}sulfonyl)-4-(4-{[2-(4-chlorophenyl)-4,4-dimethylcyclohex-1-en-1-yl]methyl}piperidin-1-yl)-2-(1H-pyrrolo[2,3-b]pyridin-5-yloxy)benzamide] the EC50 was 381 nM. With `CC1(C)CCC(CN2CCN(c3ccc(C(=O)NS(=O)(=O)c4ccc(OC[C@H]5CC[C@H](N6CCOCC6)CC5)c(Cl)c4)c(Oc4cnc5[nH]ccc5c4)c3)CC2)=C(c2ccc(Cl)cc2)C1` [Example 303, N-[(3-chloro-4-{[trans-4-(morpholin-4-yl)cyclohexyl]methoxy}phenyl)sulfonyl]-4-(4-{[2-(4-chlorophenyl)-4,4-dimethylcyclohex-1-en-1-yl]methyl}piperazin-1-yl)-2-(1H-pyrrolo[2,3-b]pyridin-5-yloxy)benzamide] the EC50 was 47.8 nM. Molecule `CC1(C)CCC(CN2CCN(c3ccc(C(=O)NS(=O)(=O)c4ccc(NCCCN(Cc5cncs5)C5CC5)c([N+](=O)[O-])c4)c(Oc4cnc5[nH]ccc5c4)c3)CC2)=C(c2ccc(Cl)cc2)C1` [Example 304, 4-(4-{[2-(4-chlorophenyl)-4,4-dimethylcyclohex-1-en-1-yl]methyl}piperazin-1-yl)-N-{[4-({3-[cyclopropyl(1,3-thiazol-5-ylmethyl)amino]propyl}amino)-3-nitrophenyl]sulfonyl}-2-(1H-pyrrolo[2,3-b]pyridin-5-yloxy)benzamide] has an EC50 of 298 nM. With `CC1(C)CCC(CN2CCN(c3ccc(C(=O)NS(=O)(=O)c4ccc(OC[C@H]5CC[C@H](O)CC5)c(Cl)c4)c(Oc4cnc5[nH]ccc5c4)c3)CC2)=C(c2ccc(Cl)cc2)C1` [Example 305, N-({3-chloro-4-[(trans-4-hydroxycyclohexyl)methoxy]phenyl}sulfonyl)-4-(4-{[2-(4-chlorophenyl)-4,4-dimethylcyclohex-1-en-1-yl]methyl}piperazin-1-yl)-2-(1H-pyrrolo[2,3-b]pyridin-5-yloxy)benzamide] the EC50 was 32.5 nM. `CC1(C)CCC(CN2CCN(c3ccc(C(=O)NS(=O)(=O)c4ccc(NCC5CCOCC5)c(Cl)c4)c(Oc4cnc5[nH]ccc5c4)c3)CC2)=C(c2ccc(Cl)cc2)C1` [Example 306, 4-(4-{[2-(4-chlorophenyl)-4,4-dimethylcyclohex-1-en-1-yl]methyl}piperazin-1-yl)-N-({3-chloro-4-[(tetrahydro-2H-pyran-4-ylmethyl)amino]phenyl}sulfonyl)-2-(1H-pyrrolo[2,3-b]pyridin-5-yloxy)benzamide] was tested, and the EC50 was 553 nM. With `CC1(C)CCC(CN2CCN(c3ccc(C(=O)NS(=O)(=O)c4ccc(OCC5(F)CCOCC5)c(C(F)(F)F)c4)c(Oc4cnc5[nH]ccc5c4)c3)CC2)=C(c2ccc(Cl)cc2)C1` [Example 307, 4-(4-{[2-(4-chlorophenyl)-4,4-dimethylcyclohex-1-en-1-yl]methyl}piperazin-1-yl)-N-({4-[(4-fluorotetrahydro-2H-pyran-4-yl)methoxy]-3-(trifluoromethyl)phenyl}sulfonyl)-2-(1H-pyrrolo[2,3-b]pyridin-5-yloxy)benzamide] the EC50 was 128 nM. `CC1(C)CCC(CN2CCN(c3ccc(C(=O)NS(=O)(=O)c4ccc(NCCCN(CC(F)(F)F)C5CC5)c([N+](=O)[O-])c4)c(Oc4cnc5[nH]ccc5c4)c3)CC2)=C(c2ccc(Cl)cc2)C1` [Example 308, 4-(4-{[2-(4-chlorophenyl)-4,4-dimethylcyclohex-1-en-1-yl]methyl}piperazin-1-yl)-N-{[4-({3-[cyclopropyl(2,2,2-trifluoroethyl)amino]propyl}amino)-3-nitrophenyl]sulfonyl}-2-(1H-pyrrolo[2,3-b]pyridin-5-yloxy)benzamide] was tested, and the EC50 was 257 nM. `CC1(C)CCC(CN2CCN(c3ccc(C(=O)NS(=O)(=O)c4ccc(OCC5CCN(C6COC6)CC5)c(Cl)c4)c(Oc4cnc5[nH]ccc5c4)c3)CC2)=C(c2ccc(Cl)cc2)C1` [Example 309, N-[(3-chloro-4-{[1-(oxetan-3-yl)piperidin-4-yl]methoxy}phenyl)sulfonyl]-4-(4-{[2-(4-chlorophenyl)-4,4-dimethylcyclohex-1-en-1-yl]methyl}piperazin-1-yl)-2-(1H-pyrrolo[2,3-b]pyridin-5-yloxy)benzamide] showed an EC50 of 52.4 nM. `CC1(C)CCC(CN2CCN(c3ccc(C(=O)NS(=O)(=O)c4cc(F)c(OCC5(F)CCOCC5)c(F)c4)c(Oc4cnc5[nH]ccc5c4)c3)CC2)=C(c2ccc(Cl)cc2)C1` [Example 310, 4-(4-{[2-(4-chlorophenyl)-4,4-dimethylcyclohex-1-en-1-yl]methyl}piperazin-1-yl)-N-({3,5-difluoro-4-[(4-fluorotetrahydro-2H-pyran-4-yl)methoxy]phenyl}sulfonyl)-2-(1H-pyrrolo[2,3-b]pyridin-5-yloxy)benzamide] was tested, and the EC50 was > 1000 nM.
